Source: patent US4142046A, “Intermediates for the preparation of 7-acyl-3-(substituted triazolylthiomethyl)cephalosporins” (SmithKline Corporation, priority 1976, dated 1979)
Converted amounts (≈) assume the structure as drawn. Read-outs that look alike come from different tables or passages of the source.

How the values were obtained:
Kleb. pneumo. 4200 = test: In vivo mouse protection (ED50); details: for ED50: Mus musculus
E. coli 12140 = test: In vivo mouse protection (ED50)
Salmonella ATCC 12176 = test: MIC in vitro; type: cell-based; details: ATCC12176
Experimental: (§1) The compounds of Formula I have antibacterial activity against both Gram-positive and Gram-negative organisms. Minimum inhibitory concentrations (MIC's) ranged from 0.2 to >200 μg./ml. in in vitro testing. […] Compound numbers corresponding to structures are given in the experimental section.

E. coli SK 12140 = test: MIC in vitro; type: cell-based; details: Escherichia coli, SK12140; E. coli SK 12140; read-out: MIC in vitro
Experimental: as §1

Shigella HH 117 = test: MIC in vitro; type: cell-based; details: for MIC: Shigella, HH117, Shigella HH 117
Experimental: as §1

Kleb. pneumo. SK 1200 = test: MIC in vitro; type: cell-based
Experimental: as §1

Strep. faecalis HH 34358 = test: MIC in vitro; type: cell-based; details: Enterococcus faecalis, HH34358, Strep. faecalis HH 34358
Experimental: as §1

[1] = test system: Entero. aerog. ATCC 13048; test: MIC in vitro; type: cell-based
Experimental: as §1

Kleb. pneumo. SK 4200 = test: MIC in vitro; type: cell-based; details: Kleb. pneumo. SK 4200; read-out: MIC in vitro
Experimental: as §1

Serra. marc. ATCC 13880 = test: MIC in vitro; type: cell-based
Experimental: as §1

S. aureus HH 127 = test: MIC in vitro; type: cell-based; details: Staphylococcus aureus
Experimental: as §1

S. aureus SK 23390 = test: MIC in vitro; type: cell-based; details: Staphylococcus aureus
Experimental: as §1

E. coli HH 33779 = test: MIC in vitro; type: cell-based; details: Escherichia coli, HH33779
Experimental: as §1

Proteus Morgani 179 = test: MIC in vitro; type: cell-based
Experimental: as §1

Entero. cloacae HH 31254 = test: MIC in vitro; type: cell-based; details: for MIC: Enterobacter cloacae, HH31254, Entero. cloacae HH 31254, read-out: MIC in vitro
Experimental: as §1

S. villaluz = test: MIC in vitro; type: cell-based; details: read-out: MIC in vitro
Experimental: as §1

Pseudo. sp. HH 63 = test: MIC in vitro; type: cell-based
Experimental: as §1

[2] = Escherichia coli, 12140, po, E. coli 12140, p.o.
[3] = Escherichia coli, 12140, sc, E. coli 12140, s.c.
[4] = Kleb. pneumo. SK 1200, read-out: MIC in vitro
[5] = HH127, S. aureus HH 127, read-out: MIC in vitro
[6] = SK23390, S. aureus SK 23390, read-out: MIC in vitro
[7] = read-out: MIC in vitro, Kleb. pneumo. SK 1200

Compound: NC(=O)c1nn[nH]c1SCC1=C(C(=O)O)N2C(=O)C(NC(=O)[C@H](N)c3ccc(O)cc3)[C@H]2SC1 (stereo partly drawn) [IV, 7-(D-α-Amino-4-hydroxyphenylacetamido)-3-(4-carbamoyl-1,2,3-triazol-5-ylthiomethyl)-3-cephem-4-carboxylic acid]
- ED50 (Kleb. pneumo. 4200; po, Kleb. pneumo. 4200, p.o.): 8.2 mg/kg
- ED50 (Kleb. pneumo. 4200; sc, Kleb. pneumo. 4200, s.c.): < 3 mg/kg
- ED50 (E. coli 12140; [2]): 35 mg/kg
- ED50 (E. coli 12140; [3]): 5.2 mg/kg
- MIC (Salmonella ATCC 12176): 1.6 µg/mL (≈ 3.16 µM)
- MIC (E. coli SK 12140): 6 µg/mL (≈ 11.9 µM)
- MIC (Shigella HH 117): 1.6 µg/mL (≈ 3.16 µM)
- MIC (Kleb. pneumo. SK 1200; [4]): 1.6 µg/mL (≈ 3.16 µM)
- MIC (Strep. faecalis HH 34358): 25 µg/mL (≈ 49.5 µM)
- MIC [1]: 50 µg/mL (≈ 98.9 µM)
- MIC (Kleb. pneumo. SK 4200): 6 µg/mL (≈ 11.9 µM)
- MIC (Serra. marc. ATCC 13880): > 200 µg/mL
- MIC (S. aureus HH 127; [5]): 3 µg/mL (≈ 5.93 µM)
- MIC (S. aureus SK 23390; [6]): 3 µg/mL (≈ 5.93 µM)
- MIC (E. coli HH 33779): 6 µg/mL (≈ 11.9 µM)
- MIC (Proteus Morgani 179): > 200 µg/mL

Compound: N[C@@H](C(=O)NC1C(=O)N2C(C(=O)O)=C(CSc3n[nH]c(CC(=O)O)n3)CS[C@H]12)c1ccc(O)cc1 (stereo partly drawn) [VII, 7-(D-α-Amino-4-hydroxyphenylacetamido)-3-(5-carboxymethyl-1,2,4-triazol-3-ylthiomethyl)-3-cephem-4-carboxylic acid]
- ED50 (Kleb. pneumo. 4200; po, Kleb. pneumo. 4200, p.o.): 31 mg/kg
- ED50 (Kleb. pneumo. 4200; sc, Kleb. pneumo. 4200, s.c.): 1.1 mg/kg
- ED50 (E. coli 12140; [2]): > 50 mg/kg
- ED50 (E. coli 12140; [3]): 3 mg/kg
- MIC (Salmonella ATCC 12176): 1.6 µg/mL (≈ 3.07 µM)
- MIC (Entero. cloacae HH 31254): 3.1 µg/mL (≈ 5.96 µM)
- MIC (E. coli SK 12140): 3.1 µg/mL (≈ 5.96 µM)
- MIC (Shigella HH 117): 6.3 µg/mL (≈ 12.1 µM)
- MIC (Kleb. pneumo. SK 1200; [7]): 6.3 µg/mL (≈ 12.1 µM)
- MIC (S. villaluz): > 200 µg/mL
- MIC (Strep. faecalis HH 34358): 100 µg/mL (≈ 192 µM)
- MIC (Pseudo. sp. HH 63): > 200 µg/mL
- MIC [1]: 25 µg/mL (≈ 48 µM)
- MIC (Kleb. pneumo. SK 4200): 1.6 µg/mL (≈ 3.07 µM)
- MIC (Serra. marc. ATCC 13880): > 200 µg/mL
- MIC (S. aureus HH 127; HH127, read-out: MIC in vitro): 12.5 µg/mL (≈ 24 µM)
- MIC (S. aureus SK 23390; SK23390, read-out: MIC in vitro): 12.5 µg/mL (≈ 24 µM)
- MIC (E. coli HH 33779): 12.5 µg/mL (≈ 24 µM)
- MIC (Proteus Morgani 179): > 200 µg/mL

Compound: O=C(O)Cc1nc(SCC2=C(C(=O)O)N3C(=O)C(NC(=O)[C@H](O)c4ccccc4)[C@H]3SC2)n[nH]1 (stereo partly drawn) [IX, 7-D-Mandelamido-3-(5-carboxymethyl-1,2,4-triazol-3-ylthiomethyl)-3-cephem-4-carboxylic acid]
- ED50 in vivo (Kleb. pneumo. 4200; Kleb. pneumo. 4200, s.c.): < 3 mg/kg
- ED50 (Kleb. pneumo. 4200; po, Kleb. pneumo. 4200, p.o.): 71 mg/kg
- ED50 (Kleb. pneumo. 4200; sc, Kleb. pneumo. 4200, s.c.): 1.5 mg/kg
- ED50 (E. coli 12140; [2]): 41 mg/kg
- ED50 (E. coli 12140; [3]): 1 mg/kg
- MIC (Salmonella ATCC 12176): 1.6 µg/mL (≈ 3.16 µM)
- MIC in vitro (Entero. cloacae HH 31254; Entero. cloacae HH 31254): 1.6 µg/mL (≈ 3.16 µM)
- MIC (Entero. cloacae HH 31254): 3.1 µg/mL (≈ 6.13 µM)
- MIC (E. coli SK 12140): 3.1 µg/mL (≈ 6.13 µM)
- MIC in vitro (Shigella HH 117; Shigella HH 117): 1.6 µg/mL (≈ 3.16 µM)
- MIC (Shigella HH 117): 0.8 µg/mL (≈ 1.58 µM)
- MIC in vitro (Kleb. pneumo. SK 1200; Kleb. pneumo. SK 1200): 0.2 µg/mL (≈ 0.396 µM)
- MIC (Kleb. pneumo. SK 1200; [7]): 0.4 µg/mL (≈ 0.791 µM)
- MIC (Strep. faecalis HH 34358): 200 µg/mL (≈ 396 µM)
- MIC (Pseudo. sp. HH 63): > 200 µg/mL
- MIC [1]: 6.3 µg/mL (≈ 12.5 µM)
- MIC (Kleb. pneumo. SK 4200): 1.6 µg/mL (≈ 3.16 µM)
- MIC (Serra. marc. ATCC 13880): > 200 µg/mL
- MIC in vitro (Serra. marc. ATCC 13880): 200 µg/mL (≈ 396 µM)
- MIC (S. aureus HH 127; HH127, read-out: MIC in vitro): 3.1 µg/mL (≈ 6.13 µM)
- MIC (S. aureus SK 23390; [6]): 1.6 µg/mL (≈ 3.16 µM)
- MIC (E. coli HH 33779): 3.1 µg/mL (≈ 6.13 µM)
- MIC (Proteus Morgani 179): 200 µg/mL (≈ 396 µM)

Compound: N[C@@H](C(=O)NC1C(=O)N2C(C(=O)O)=C(CSc3n[nH]c(CC(=O)O)n3)CS[C@H]12)c1ccccc1 (stereo partly drawn) [VIII, 7-(D-α-Aminophenylacetamido)-3-(5-carboxymethyl-1,2,4-triazol-3-ylthiomethyl)-3-cephem-4-carboxylic acid]
- ED50 in vivo (Kleb. pneumo. 4200; Kleb. pneumo. 4200, s.c.): < 0.78 mg/kg
- ED50 (Kleb. pneumo. 4200; po, Kleb. pneumo. 4200, p.o.): 39 mg/kg
- ED50 (Kleb. pneumo. 4200; sc, Kleb. pneumo. 4200, s.c.): 0.8 mg/kg
- ED50 (E. coli 12140; [2]): > 50 mg/kg
- ED50 (E. coli 12140; [3]): 1.1 mg/kg
- MIC (Salmonella ATCC 12176): 0.8 µg/mL (≈ 1.59 µM)
- MIC (Entero. cloacae HH 31254): 3.1 µg/mL (≈ 6.14 µM)
- MIC (E. coli SK 12140): 3.1 µg/mL (≈ 6.14 µM)
- MIC (Shigella HH 117): 3.1 µg/mL (≈ 6.14 µM)
- MIC (Kleb. pneumo. SK 1200; [4]): 1.6 µg/mL (≈ 3.17 µM)
- MIC (Strep. faecalis HH 34358): 200 µg/mL (≈ 396 µM)
- MIC (Pseudo. sp. HH 63): > 200 µg/mL
- MIC [1]: 6.3 µg/mL (≈ 12.5 µM)
- MIC (Kleb. pneumo. SK 4200): 1.6 µg/mL (≈ 3.17 µM)
- MIC (Serra. marc. ATCC 13880): > 200 µg/mL
- MIC (S. aureus HH 127; HH127, read-out: MIC in vitro): 12.5 µg/mL (≈ 24.8 µM)
- MIC (S. aureus SK 23390; [6]): 25 µg/mL (≈ 49.5 µM)
- MIC (E. coli HH 33779): 6.3 µg/mL (≈ 12.5 µM)
- MIC (Proteus Morgani 179): 200 µg/mL (≈ 396 µM)

Compound: CCOC(=O)c1nn[nH]c1SCC1=C(C(=O)O)N2C(=O)C(NC(=O)[C@H](N)c3ccccc3)[C@H]2SC1 (stereo partly drawn) [II, 7-(D-α-Aminophenylacetamido)-3-(4-carbethoxy-1,2,3-triazol-5-ylthiomethyl)-3-cephem-4-carboxylic acid]
- MIC (Salmonella ATCC 12176): 13 µg/mL (≈ 25.1 µM)
- MIC (E. coli SK 12140): 25 µg/mL (≈ 48.2 µM)
- MIC (Shigella HH 117): 13 µg/mL (≈ 25.1 µM)
- MIC (Kleb. pneumo. SK 1200; [4]): 50 µg/mL (≈ 96.4 µM)
- MIC (S. villaluz): 100 µg/mL (≈ 193 µM)
- MIC (Strep. faecalis HH 34358): 100 µg/mL (≈ 193 µM)
- MIC [1]: 50 µg/mL (≈ 96.4 µM)
- MIC (Kleb. pneumo. SK 4200): 25 µg/mL (≈ 48.2 µM)
- MIC (Serra. marc. ATCC 13880): > 200 µg/mL
- MIC (S. aureus HH 127; [5]): 6 µg/mL (≈ 11.6 µM)
- MIC (S. aureus SK 23390; [6]): 6 µg/mL (≈ 11.6 µM)
- MIC (E. coli HH 33779): 50 µg/mL (≈ 96.4 µM)
- MIC (Proteus Morgani 179): > 200 µg/mL
